Measured values taken from patent publication US9475817B2 (BRISTOL-MYERS SQUIBB COMPANY, priority 2012, dated 2016).

Legend:
CK1δ = CK1δ (Homo sapiens (Human), UniProt P48730); experiment: CK1δ kinase assay (Caliper LabChip, fluoresceinated peptide substrate); assay type: biochemical; conditions: 200 pM CK1δ, 50 μM ATP, 1.5 μM peptide substrate, 22 hours room temperature
Description: (§1) CK1ε and CK1δ Kinase Assays
(§2) The kinase assay was performed in V-bottom 384-well plates. […] The reaction was incubated at room temperature for 22 hours and terminated by adding 45 μl of 35 mM EDTA to each sample. […] Compounds were dissolved at 10 mM in dimethylsulfoxide (DMSO) and evaluated at eleven concentrations. IC50 values were derived by non-linear regression analysis.

CK1ε = CK1ε (Homo sapiens (Human), UniProt P49674); experiment: CK1ε kinase assay (Caliper LabChip, fluoresceinated peptide substrate); assay type: biochemical; conditions: 200 pM CK1ε, 50 μM ATP, 1.5 μM peptide substrate, 22 hours room temperature
Sequence of CK1ε (P49674 whole entry): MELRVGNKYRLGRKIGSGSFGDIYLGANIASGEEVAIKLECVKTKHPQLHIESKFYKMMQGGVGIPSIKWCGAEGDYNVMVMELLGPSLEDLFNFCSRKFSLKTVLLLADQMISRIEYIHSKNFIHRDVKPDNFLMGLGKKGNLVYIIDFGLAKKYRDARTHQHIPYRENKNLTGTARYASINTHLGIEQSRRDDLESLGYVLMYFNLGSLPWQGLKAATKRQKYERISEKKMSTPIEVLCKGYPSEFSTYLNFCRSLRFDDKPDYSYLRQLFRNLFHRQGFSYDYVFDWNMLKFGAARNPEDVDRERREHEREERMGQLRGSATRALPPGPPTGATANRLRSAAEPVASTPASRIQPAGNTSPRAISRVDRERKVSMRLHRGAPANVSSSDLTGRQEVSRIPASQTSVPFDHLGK
Description: as §1, §2

Sequence of CK1δ (P48730 whole entry): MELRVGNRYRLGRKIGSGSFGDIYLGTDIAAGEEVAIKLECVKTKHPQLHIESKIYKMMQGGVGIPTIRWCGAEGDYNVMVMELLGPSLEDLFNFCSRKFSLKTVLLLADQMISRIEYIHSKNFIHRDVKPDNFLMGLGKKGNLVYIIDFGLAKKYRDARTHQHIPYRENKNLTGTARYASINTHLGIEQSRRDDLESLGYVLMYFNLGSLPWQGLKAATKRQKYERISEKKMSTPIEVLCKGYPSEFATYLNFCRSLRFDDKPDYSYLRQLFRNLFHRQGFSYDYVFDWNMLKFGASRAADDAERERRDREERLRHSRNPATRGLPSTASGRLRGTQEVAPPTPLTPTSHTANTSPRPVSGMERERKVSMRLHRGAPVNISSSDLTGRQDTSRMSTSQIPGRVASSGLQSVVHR

SMILES | IC50 (CK1δ) | IC50 (CK1ε)
Cn1nc(-c2ccc(F)cc2)c(-c2ccc3nc(NC(=O)c4ccnc(N5CCOCC5)c4)cn3n2)c1N1CCN(C(=O)c2ccon2)CC1 [Compound 137, N-(6-(3-(4-Fluorophenyl)-5-(4-(isoxazole-3-carbonyl)piperazin-1-yl)-1-methyl-1H-pyrazol-4-yl)imidazo[1,2-b]pyridazin-2-yl)-2-morpholinoisonicotinamide] | 1 nM | 10.1 nM
Cn1nc(-c2ccc(F)cc2)c(-c2ccc3nc(NC(=O)c4ccnc(N5CCOCC5)c4)cn3n2)c1N1CCN(C(=O)CC(F)(F)F)CC1 [Compound 138, N-(6-(3-(4-Fluorophenyl)-1-methyl-5-(4-(3,3,3-trifluoropropanoyl)piperazin-1-yl)-1H-pyrazol-4-yl)imidazo[1,2-b]pyridazin-2-yl)-2-morpholinoisonicotinamide] | 1.6 nM | 9.3 nM
Cc1nc(-c2cccnc2)sc1C(=O)Nc1cn2nc(-c3c(-c4ccc(F)cc4)nn(C)c3N3CCOCC3)ccc2n1 [Compound 146, N-(6-(3-(4-fluorophenyl)-1-methyl-5-morpholino-1H-pyrazol-4-yl)imidazo [1,2-b]pyridazin-2-yl)-4-methyl-2-(pyridin-3-yl)thiazole-5-carboxamide] | 0.5 nM | 4.9 nM
Cc1nc(-c2ccncc2)sc1C(=O)Nc1cn2nc(-c3c(-c4ccc(F)cc4)nn(C)c3N3CCOCC3)ccc2n1 [Compound 147, N-(6-(3-(4-fluorophenyl)-1-methyl-5-morpholino-1H-pyrazol-4-yl)imidazo [1,2-b]pyridazin-2-yl)-4-methyl-2-(pyridin-4-yl)thiazole-5-carboxamide] | 0.7 nM | 7.9 nM
Cn1nc(-c2ccc(F)cc2)c(-c2ccc3nc(NC(=O)c4ccnc(F)c4)cn3n2)c1C1CCN(Cc2ccon2)CC1 [Compound 150, 2-Fluoro-N-(6-(3-(4-fluorophenyl)-5-(1-(isoxazol-3-ylmethyl)piperidin-4-yl)-1-methyl-1H-pyrazol-4-yl)imidazo[1,2-b]pyridazin-2-yl)isonicotinamide] | 1.1 nM | 1 nM
Cn1nc(-c2ccc(F)cc2)c(-c2ccc3nc(NC(=O)c4ccnc(F)c4)cn3n2)c1C1CCN(C(=O)c2ccon2)CC1 [Compound 153, 2-fluoro-N-(6-(3-(4-fluorophenyl)-5-(1-(isoxazole-3-carbonyl)piperidin-4-yl)-1-methyl-1H-pyrazol-4-yl)imidazo[1,2-b]pyridazin-2-yl)isonicotinamide] | 0.3 nM | 2.2 nM
Cn1nc(-c2ccc(F)cc2)c(-c2ccc3nc(NC(=O)c4ccnc(F)c4)cn3n2)c1C1CCN(C(=O)c2cncs2)CC1 [Compound 154, 2-fluoro-N-(6-(3-(4-fluorophenyl)-1-methyl-5-(1-(thiazole-5-carbonyl)piperidin-4-yl)-1H-pyrazol-4-yl)imidazo[1,2-b]pyridazin-2-yl)isonicotinamide] | 0.3 nM | 0.3 nM
Cn1nc(-c2ccc(F)cc2)c(-c2ccc3nc(NC(=O)c4ccnc(N5CCOCC5)c4)cn3n2)c1C1CCN(CCC(F)(F)F)CC1 [Compound 161, N-(6-(3-(4-Fluorophenyl)-1-methyl-5-(1-(3,3,3-trifluoropropyl)piperidin-4-yl)-1H-pyrazol-4-yl)imidazo[1,2-b]pyridazin-2-yl)-2-morpholinoisonicotinamide] | 1.7 nM | 22.9 nM
Cn1nc(-c2ccc(F)cc2)c(-c2ccc3nc(NC(=O)c4ccnc(N5CCOCC5)c4)cn3n2)c1C1CCN(CCCF)CC1 [Compound 162, N-(6-(3-(4-Fluorophenyl)-5-(1-(3-fluoropropyl)piperidin-4-yl)-1-methyl-1H-pyrazol-4-yl)imidazo[1,2-b]pyridazin-2-yl)-2-morpholinoisonicotinamide] | 0.5 nM | 17.5 nM
Cn1nc(-c2ccc(F)cc2)c(-c2ccc3nc(NC(=O)c4ccnc(N5CCOCC5)c4)cn3n2)c1C1CCN(CC(N)=O)CC1 [Compound 163, N-(6-(5-(1-(2-Amino-2-oxoethyl)piperidin-4-yl)-3-(4-fluorophenyl)-1-methyl-1H-pyrazol-4-yl)imidazo[1,2-b]pyridazin-2-yl)-2-morpholinoisonicotinamide] | 0.4 nM | 0.6 nM

Second part, the compound after the results:

IC50 (CK1δ) | IC50 (CK1ε) | SMILES
1.4 nM | 9.3 nM | Cn1nc(-c2ccc(F)cc2)c(-c2ccc3nc(NC(=O)c4ccnc(N5CCOCC5)c4)cn3n2)c1N1CCN(CCCF)CC1 [Compound 139, N-(6-(3-(4-Fluorophenyl)-5-(4-(3-fluoropropyl)piperazin-1-yl)-1-methyl-1H-pyrazol-4-yl)imidazo[1,2-b]pyridazin-2-yl)-2-morpholinoisonicotinamide]
2.5 nM | 2.4 nM | Cn1nc(-c2ccc(F)cc2)c(-c2ccc3nc(NC(=O)c4ccnc(N)c4)cn3n2)c1N1CCNCC1 [Compound 140, 2-Amino-N-(6-(3-(4-fluorophenyl)-1-methyl-5-(piperazin-1-yl)-1H-pyrazol-4-yl)imidazo[1,2-b]pyridazin-2-yl)isonicotinamide]
2.5 nM | 32 nM | Cn1nc(-c2ccc(F)cc2)c(-c2ccc3nc(NC(=O)c4ccnc(N)c4)cn3n2)c1N1CCN(CCC(F)(F)F)CC1 [Compound 141, 2-Amino-N-(6-(3-(4-fluorophenyl)-1-methyl-5-(4-(3,3,3-trifluoropropyl)piperazin-1-yl)-1H-pyrazol-4-yl)imidazo[1,2-b]pyridazin-2-yl)isonicotinamide]
0.3 nM | 2.2 nM | Cn1nc(-c2ccc(F)cc2)c(-c2ccc3nc(NC(=O)c4ccnc(N)c4)cn3n2)c1N1CCN(Cc2ccon2)CC1 [Compound 142, 2-Amino-N-(6-(3-(4-fluorophenyl)-5-(4-(isoxazol-3-ylmethyl)piperazin-1-yl)-1-methyl-1H-pyrazol-4-yl)imidazo[1,2-b]pyridazin-2-yl)isonicotinamide]
1.4 nM | 22.8 nM | Cn1nc(-c2ccc(F)cc2)c(-c2ccc3nc(NC(=O)c4cc(F)nc(F)c4)cn3n2)c1N1CCOCC1 [Compound 145, 2,6-difluoro-N-(6-(3-(4-fluorophenyl)-1-methyl-5-morpholino-1H-pyrazol-4-yl)imidazo[1,2-b]pyridazin-2-yl) isonicotinamide]
2.1 nM | 2.6 nM | Cn1nc(-c2ccc(F)cc2)c(-c2ccc3nc(NC(=O)c4ccnc(F)c4)cn3n2)c1C1CCNCC1 [Compound 148, 2-Fluoro-N-(6-(3-(4-fluorophenyl)-1-methyl-5-(piperidin-4-yl)-1H-pyrazol-4-yl)imidazo[1,2-b]pyridazin-2-yl)isonicotinamide]
0.5 nM | 5.7 nM | Cn1nc(-c2ccc(F)cc2)c(-c2ccc3nc(NC(=O)c4ccnc(F)c4)cn3n2)c1C1CCN(C(=O)CC(F)(F)F)CC1 [Compound 151, 2-Fluoro-N-(6-(3-(4-fluorophenyl)-1-methyl-5-(1-(3,3,3-trifluoropropanoyl)piperidin-4-yl)-1H-pyrazol-4-yl)imidazo[1,2-b]pyridazin-2-yl)isonicotinamide]
0.3 nM | 2.7 nM | COCC(=O)N1CCC(c2c(-c3ccc4nc(NC(=O)c5ccnc(F)c5)cn4n3)c(-c3ccc(F)cc3)nn2C)CC1 [Compound 152, 2-fluoro-N-(6-(3-(4-fluorophenyl)-5-(1-(2-methoxyacetyl)piperidin-4-yl)-1-methyl-1H-pyrazol-4-yl)imidazo[1,2-b]pyridazin-2-yl) isonicotinamide]
0.4 nM | 2.6 nM | Cn1nc(-c2ccc(F)cc2)c(-c2ccc3nc(NC(=O)c4ccnc(F)c4)cn3n2)c1C1CCN(CCC#N)CC1 [Compound 156, N-(6-(5-(1-(2-Cyanoethyl)piperidin-4-yl)-3-(4-fluorophenyl)-1-methyl-1H-pyrazol-4-yl)imidazo[1,2-b]pyridazin-2-yl)-2-fluoroisonicotinamide]
0.3 nM | 1.3 nM | Cn1nc(-c2ccc(F)cc2)c(-c2ccc3nc(NC(=O)c4ccnc(F)c4)cn3n2)c1C1CCN(CC(N)=O)CC1 [Compound 157, N-(6-(5-(1-(2-Amino-2-oxoethyl)piperidin-4-yl)-3-(4-fluorophenyl)-1-methyl-1H-pyrazol-4-yl)imidazo[1,2-b]pyridazin-2-yl)-2-fluoroisonicotinamide]
0.2 nM | 0.3 nM | Cn1nc(-c2ccc(F)cc2)c(-c2ccc3nc(NC(=O)c4ccnc(F)c4)cn3n2)c1C1CCN(C[C@@H](O)C(F)(F)F)CC1 [Compound 158, (R)-2-Fluoro-N-(6-(3-(4-fluorophenyl)-1-methyl-5-(1-(3,3,3-trifluoro-2-hydroxypropyl)piperidin-4-yl)-1H-pyrazol-4-yl)imidazo[1,2-b]pyridazin-2-yl)isonicotinamide]
0.4 nM | 1.4 nM | Cn1nc(-c2ccc(F)cc2)c(-c2ccc3nc(NC(=O)c4ccnc(F)c4)cn3n2)c1C1CCN(C[C@H](O)C(F)(F)F)CC1 [Compound 159, (S)-2-Fluoro-N-(6-(3-(4-fluorophenyl)-1-methyl-5-(1-(3,3,3-trifluoro-2-hydroxypropyl)piperidin-4-yl)-1H-pyrazol-4-yl)imidazo[1,2-b]pyridazin-2-yl)isonicotinamide]
1.5 nM | 1 nM | Cn1nc(-c2ccc(F)cc2)c(-c2ccc3nc(NC(=O)c4ccnc(N5CCOCC5)c4)cn3n2)c1C1CCNCC1 [Compound 160, N-(6-(3-(4-Fluorophenyl)-1-methyl-5-(piperidin-4-yl)-1H-pyrazol-4-yl)imidazo[1,2-b]pyridazin-2-yl)-2-morpholinoisonicotinamide]
0.9 nM | 3.3 nM | Cn1nc(-c2ccc(F)cc2)c(-c2ccc3nc(NC(=O)c4ccncc4)cn3n2)c1C1CCNCC1 [Compound 164, N-(6-(3-(4-Fluorophenyl)-1-methyl-5-(piperidin-4-yl)-1H-pyrazol-4-yl)imidazo[1,2-b]pyridazin-2-yl)isonicotinamide]
